Values belong to the compound of their own block, whether it stands above or below them.
Experiment: collision cross section in nitrogen (drift tube, single-field); higher = larger gas-phase ion size
[1] = ion type: [M+H], ion source: APCI, ion mode: Positive
[2] = ion type: [M+H], ion source: ESI, ion mode: Positive
[3] = ion type: [M+Na], ion source: ESI, ion mode: Positive
[4] = ion type: [M-H], ion source: ESI, ion mode: Negative
[5] = ion type: [M+], ion source: APCI, ion mode: Positive
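Note: chemical standards at 10 µM analysed by drift tube IMS-QTOF MS in about 3.95 torr nitrogen, mean of duplicate injections differing ≤1%, mass error below 10 ppm.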

collision cross section in nitrogen (ion source: ESI, ion mode: Positive, ion type: [M]+ (permanent cation)): 143.3 Å²
Compound: C=C(C)C(=O)NCCC[N+](C)(C)C

collision cross section in nitrogen [1]: 196.9 Å²
collision cross section in nitrogen [3]: 191.5 Å²
collision cross section in nitrogen [4]: 201 Å²
Compound: CC(C)(O)c1ccc(CNC(=O)c2cccnc2Oc2ccc3nonc3c2)cc1

collision cross section in nitrogen [1]: 190.8 Å²
collision cross section in nitrogen [2]: 190.6 Å²
collision cross section in nitrogen [3]: 186.3 Å²
Compound: Cc1oc(-c2ccccc2)nc1CCOc1cccc2c1ccn2CCC(=O)O

collision cross section in nitrogen [1]: 184.3 Å²
collision cross section in nitrogen [2]: 184.3 Å²
collision cross section in nitrogen [3]: 181.8 Å²
collision cross section in nitrogen [5]: 190.7 Å²
collision cross section in nitrogen [4]: 193.9 Å²
Compound: Cc1nc(-c2ccccn2)ncc1C(=O)Nn1cc(C)c2cc(F)ccc21

collision cross section in nitrogen [1]: 192.3 Å²
collision cross section in nitrogen [2]: 192.4 Å²
collision cross section in nitrogen [3]: 199.7 Å²
collision cross section in nitrogen [4]: 199.2 Å²
Compound: Cc1ncc([C@@H](CCCCCCc2ccc3c(n2)NCCC3)CC(=O)O)cn1

collision cross section in nitrogen [1]: 206 Å²
collision cross section in nitrogen [2]: 205.4 Å²
collision cross section in nitrogen [4]: 213.8 Å²
Compound: CCc1nn(C2CCCCC2)c2cc([C@]3(C#N)CC[C@@H](C(=O)O)CC3)ccc12

collision cross section in nitrogen [1]: 245 Å²
collision cross section in nitrogen [2]: 244.1 Å²
collision cross section in nitrogen [3]: 240.5 Å²
collision cross section in nitrogen [5]: 239.9 Å²
collision cross section in nitrogen [4]: 248.6 Å²
Compound: CCCC[C@H]1CN(CC2CCOCC2)C(=O)OC12CCN(C1(C)CCN(C(=O)c3c(C)ncnc3C)CC1)CC2

collision cross section in nitrogen [1]: 197 Å²
collision cross section in nitrogen [2]: 196.8 Å²
collision cross section in nitrogen [3]: 205.8 Å²
collision cross section in nitrogen [4]: 204.3 Å²
Compound: CCCCc1nc2cccnc2n1Cc1ccc(-c2ccccc2-c2nnn[nH]2)cc1

collision cross section in nitrogen [1]: 209 Å²
collision cross section in nitrogen [2]: 199.1 Å²
collision cross section in nitrogen [3]: 201 Å²
Compound: CCCN(C1CCN(C(=O)C2CCNCC2)CC1)[C@@H]1CCc2ccc(OC)cc2C1

collision cross section in nitrogen [1]: 186.4 Å²
collision cross section in nitrogen [2]: 186.4 Å²
collision cross section in nitrogen [3]: 194.8 Å²
Compound: CCN(C(=O)c1cc(C)cc(OC[C@H](C)Nc2ccncc2)c1)C(C)C

Continued, compound first:

Compound: CC(C)(C)c1csc(-c2cc3cc(OCc4ccccc4CC(=O)O)ccc3o2)n1
collision cross section in nitrogen [1]: 211.8 Å²
collision cross section in nitrogen [2]: 211.5 Å²
collision cross section in nitrogen [3]: 203.4 Å²

Compound: CC(C)(c1ccccc1)c1cc(-n2nc3ccccc3n2)c(O)c(C(C)(C)c2ccccc2)c1
collision cross section in nitrogen [1]: 218 Å²
collision cross section in nitrogen [2]: 218 Å²
collision cross section in nitrogen [3]: 223.4 Å²
collision cross section in nitrogen [4]: 222.1 Å²

Compound: CC(C)(O)c1ccc(CNC(=O)c2cccnc2Oc2ccc(F)cc2)cc1
collision cross section in nitrogen [1]: 201.1 Å²
collision cross section in nitrogen [3]: 190.4 Å²
collision cross section in nitrogen [4]: 196.7 Å²

Compound: CC(C)(O)c1cnn2c(-c3ccc(F)c(-c4c(F)cccc4C#N)c3)cnc2n1
collision cross section in nitrogen [1]: 197.1 Å²
collision cross section in nitrogen [2]: 196.4 Å²
collision cross section in nitrogen [3]: 209.2 Å²
collision cross section in nitrogen [4]: 198.6 Å²

Compound: CC(C)c1nnc2ccc(-c3ocnc3-c3cc(F)ccc3F)cn12
collision cross section in nitrogen [1]: 177.3 Å²
collision cross section in nitrogen [2]: 177 Å²
collision cross section in nitrogen [3]: 196.3 Å²
collision cross section in nitrogen [4]: 178.7 Å²

Compound: CC(Cc1ccc(OCC(=O)O)cc1)NCC(O)c1csc(C(F)(F)F)n1 (stereo unspecified)
collision cross section in nitrogen [1]: 181.1 Å²
collision cross section in nitrogen [2]: 181.4 Å²
collision cross section in nitrogen [3]: 181.2 Å²
collision cross section in nitrogen [4]: 184.7 Å²

Compound: Cc1[nH]nc2c1N=C(c1ccccc1Cl)c1cc([N+](=O)[O-])ccc1N2
collision cross section in nitrogen [1]: 180.2 Å²
collision cross section in nitrogen [2]: 180 Å²
collision cross section in nitrogen [5]: 180.3 Å²
collision cross section in nitrogen [4]: 181.1 Å²

Compound: CCn1nc(C)c2c1C(=O)NCC(c1ccc(O)cc1)=N2
collision cross section in nitrogen [1]: 170.8 Å²
collision cross section in nitrogen [2]: 170.3 Å²
collision cross section in nitrogen [4]: 172.9 Å²

Compound: CCOC(=O)c1ccc([C@H]2CC[C@H](NC[C@H](O)COc3ccc(O)c(NS(C)(=O)=O)c3)CC2)cc1
collision cross section in nitrogen [1]: 212.8 Å²
collision cross section in nitrogen [2]: 231.4 Å²
collision cross section in nitrogen [3]: 230.3 Å²
collision cross section in nitrogen [4]: 225.6 Å²

Compound: CCOc1ccc2[nH]cc(C(=O)NCc3ccccc3)c(=O)c2n1
collision cross section in nitrogen [1]: 184.3 Å²
collision cross section in nitrogen [2]: 183.9 Å²
collision cross section in nitrogen [3]: 187 Å²
collision cross section in nitrogen [4]: 183.9 Å²
